# Assay results taken from patent US12084472B2 (Ardelyx, Inc., priority 2015, dated 2024).
# Molecular target: T1, human TGR5 (Homo sapiens, UniProt Q8TDU6)
# T1 construct: expressed in transfected cells; host or cells: HEK293
# T1 sequence (Q8TDU6 1-330): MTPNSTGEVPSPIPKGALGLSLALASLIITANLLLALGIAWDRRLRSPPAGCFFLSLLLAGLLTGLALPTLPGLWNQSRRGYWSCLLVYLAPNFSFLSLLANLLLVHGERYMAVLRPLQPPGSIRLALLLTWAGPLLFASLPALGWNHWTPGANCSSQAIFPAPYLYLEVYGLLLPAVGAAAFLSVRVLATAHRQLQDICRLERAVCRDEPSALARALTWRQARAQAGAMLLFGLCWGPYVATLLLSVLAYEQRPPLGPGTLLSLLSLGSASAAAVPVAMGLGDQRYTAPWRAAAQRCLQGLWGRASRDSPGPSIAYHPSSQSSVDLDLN
# Assay: Cell-based TGR5 assay (cAMP generation, HTRF)
# Settings: HEK293 cells stably transfected with human TGR5; cAMP by HTRF; 30 minutes at 37° C.; read-out: pEC50 Human TGR5 (converted)
# Outline: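 First, compounds in 3-fold serial dilution were placed in HBSS with 10 mM HEPES pH 7.4 and 0.5 mM IBMX. Next, human TGR5-expressing HEK293 cells were added and incubated 30 min at 37° C. Finally, cAMP was detected by HTRF and pEC50 derived by logistic fitting.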
row,EC50,SMILES
1,< 100 nM,"O=C(NCCOCCNS(=O)(=O)c1ccc(Cl)c(COC2(c3cnccc3-c3ccccc3OC3CC3)CC2)c1)NC[C@H](O)[C@@H](O)[C@H](O)[C@H](O)CO (stereo in doubt) [Compound I-403, 1-(2-{2-[4-chloro-3-({1-[4-(2-cyclopropoxyphenyl)pyridin-3-yl]cyclopropoxy}methyl)benzenesulfonamido]ethoxy}ethyl)-3-[(2S,3R,4R,5R)-2,3,4,5,6-pentahydroxyhexyl]urea]"
2,< 100 nM,"CC(CCCN(CCCS(C)(=O)=O)C(=O)[C@@H](O)[C@@H](O)[C@H](O)[C@@H](O)CO)c1ccc(Cl)c(CNC2(c3cnccc3-c3ccccc3OC3CC3)CC2)c1 (stereo partly drawn) [Compound I-292, (2S,3S,4R,5S)-N-(4-{4-chloro-3-[({1-[4-(2-cyclopropoxyphenyl)pyridin-3-yl]cyclopropyl}amino)methyl]phenyl}pentyl)-2,3,4,5,6-pentahydroxy-N-(3-methanesulfonylpropyl)hexanamide]"
3,< 100 nM,"O=C(CCCSc1ccc(Cl)c(CNC2(c3cnccc3-c3ccccc3OC3CC3)CC2)c1)NC[C@H](O)[C@@H](O)[C@H](O)[C@H](O)CO [Compound I-649, 4-({4-chloro-3-[({1-[4-(2-cyclopropoxyphenyl)pyridin-3-yl]cyclopropyl}amino)methyl]phenyl}sulfanyl)-N-[(2S,3R,4R,5R)-2,3,4,5,6-pentahydroxyhexyl]butanamide]"
4,< 100 nM,"Cc1cc(CNC2(c3cnccc3-c3ccccc3OC3CC3)CC2)c(Cl)cc1CCCCC(=O)NC[C@H](O)[C@@H](O)[C@H](O)[C@H](O)CO [Compound I-142, 5-{5-chloro-4-[({1-[4-(2-cyclopropoxyphenyl)pyridin-3-yl]cyclopropyl}amino)methyl]-2-methylphenyl}-N-[(2S,3R,4R,5R)-2,3,4,5,6-pentahydroxyhexyl]pentanamide]"
5,< 100 nM,"O=C(NCCCCSc1ccc(Cl)c(CNC2(c3cnccc3-c3ccccc3OC3CC3)CC2)c1)NC[C@H](O)[C@@H](O)[C@H](O)[C@H](O)CO [Compound I-623, 1-[4-({4-chloro-3-[({1-[4-(2-cyclopropoxyphenyl)pyridin-3-yl]cyclopropyl}amino)methyl]phenyl}sulfanyl)butyl]-3-[(2S,3R,4R,5R)-2,3,4,5,6-pentahydroxyhexyl]urea]"
6,126 to 1000 nM,"CCOC(=O)NCCCN(CCCSc1ccc(Cl)c(COC2(c3cnccc3-c3ccccc3OC3CC3)CC2)c1)C(=O)[C@@H](O)[C@@H](O)[C@H](O)[C@@H](O)CO [Compound I-596, ethyl N-{3-[(2S,3S,4R,5S)-N-(3-{[4-chloro-3-({1-[4-(2-cyclopropoxyphenyl)pyridin-3-yl]cyclopropoxy}methyl)phenyl]sulfanyl}propyl)-2,3,4,5,6-pentahydroxyhexanamido]propyl}carbamate]"
7,126 to 1000 nM,"O=C1NCCN1CCN(CCCSc1ccc(Cl)c(CNC2(c3cnccc3-c3ccccc3OC3CC3)CC2)c1)C(=O)[C@@H](O)[C@@H](O)[C@H](O)[C@@H](O)CO [Compound I-531, (2S,3S,4R,5S)-N-[3-({4-chloro-3-[({1-[4-(2-cyclopropoxyphenyl)pyridin-3-yl]cyclopropyl}amino)methyl]phenyl}sulfanyl)propyl]-2,3,4,5,6-pentahydroxy-N-[2-(2-oxoimidazolidin-1-yl)ethyl]hexanamide]"
8,< 100 nM,"CC(C)N(C[C@H](O)[C@@H](O)[C@H](O)[C@H](O)CO)C(=O)CCCSc1ccc(Cl)c(COC2(c3cnccc3-c3ccccc3OC3CC3)CC2)c1 [Compound I-668, 4-{[4-chloro-3-({1-[4-(2-cyclopropoxyphenyl)pyridin-3-yl]cyclopropoxy}methyl)phenyl]sulfanyl}-N-[(2S,3R,4R,5R)-2,3,4,5,6-pentahydroxyhexyl]-N-(propan-2-yl)butanamide]"

# Second part, the compound before the results:
row,SMILES,EC50
1,"CN(C[C@H](O)[C@@H](O)[C@H](O)[C@H](O)CO)C(=O)CCN(CCC(=O)N(C)C[C@H](O)[C@@H](O)[C@H](O)[C@H](O)CO)C(=O)CCCCc1cc(Cl)c(COC2(c3cnccc3-c3ccccc3OC3CC3)CC2)cc1Cl [Compound I-169, 5-[2,5-dichloro-4-({1-[4-(2-cyclopropoxyphenyl)pyridin-3-yl]cyclopropoxy}methyl)phenyl]-N,N-bis(2-{methyl[(2S,3R,4R,5R)-2,3,4,5,6-pentahydroxyhexyl]carbamoyl}ethyl)pentanamide]",126 to 1000 nM
2,"O=C(NC[C@H](O)[C@@H](O)[C@H](O)[C@H](O)CO)[C@H]1CC[C@H](NS(=O)(=O)c2ccc(Cl)c(COC3(c4cnccc4-c4ccccc4OC4CC4)CC3)c2)CC1 [Compound I-442, (1r,4r)-4-[4-chloro-3-({1-[4-(2-cyclopropoxyphenyl)pyridin-3-yl]cyclopropoxy}methyl)benzenesulfonamido]-N-[(2S,3R,4R,5R)-2,3,4,5,6-pentahydroxyhexyl]cyclohexane-1-carboxamide]",< 100 nM
3,"COc1ccccc1-c1ccncc1C1(NCc2cc(Cl)ccc2Cl)CC1 [Compound I-4, N-[(2,5-dichlorophenyl)methyl]-1-[4-(2-methoxyphenyl)pyridin-3-yl]cyclopropan-1-amine]",126 to 1000 nM
4,"CN(CCCCc1cc(Cl)c(COC2(c3cnccc3-c3ccccc3OC3CC3)CC2)cc1Cl)C(=O)NC[C@H](O)[C@@H](O)[C@H](O)[C@H](O)CO (stereo in doubt) [Compound I-204, 1-{4-[2,5-dichloro-4-({1-[4-(2-cyclopropoxyphenyl)pyridin-3-yl]cyclopropoxy}methyl)phenyl]butyl}-1-methyl-3-[(2S,3R,4R,5R)-2,3,4,5,6-pentahydroxyhexyl]urea]",< 100 nM
5,"CC(C)CN(CCCCNC(=O)N[C@@H](CO)[C@@H](O)[C@H](O)[C@H](O)CO)S(=O)(=O)c1ccc(Cl)c(COC2(c3cnccc3-c3ccccc3OC3CC3)CC2)c1 [Compound I-761, 4-chloro-3-((1-(4-(2-cyclopropoxyphenyl)pyridin-3-yl)cyclopropoxy)methyl)-N-isobutyl-N-(4-(3-((2S,3R,4S,5R)-1,3,4,5,6-pentahydroxyhexan-2-yl)ureido)butyl)benzenesulfonamide]",< 100 nM
6,"CNC(=O)CN(C[C@H](O)[C@@H](O)[C@H](O)[C@H](O)CO)C(=O)CCCCc1cc(Cl)c(COC2(c3cnccc3-c3ccccc3OC3CC3)CC2)cc1Cl (stereo in doubt) [Compound I-219, 5-[2,5-dichloro-4-({1-[4-(2-cyclopropoxyphenyl)pyridin-3-yl]cyclopropoxy}methyl)phenyl]-N-[(methylcarbamoyl)methyl]-N-[(2S,3R,4R,5R)-2,3,4,5,6-pentahydroxyhexyl]pentanamide]",< 100 nM
7,"COc1cc(C)c(CNC2(c3cnccc3-c3ccccc3OC3CC3)CC2)cc1C(C)C [Compound I-38, 1-[4-(2-cyclopropoxyphenyl)pyridin-3-yl]-N-{[4-methoxy-2-methyl-5-(propan-2-yl)phenyl]methyl}cyclopropan-1-amine]",126 to 1000 nM
8,"CCNC(=O)[C@@H](N)CCCCNS(=O)(=O)c1ccc(COC2(c3cnccc3-c3ccccc3OC3CC3)CC2)c(Cl)c1 [Compound I-486, (S)-2-amino-6-(3-chloro-4-((1-(4-(2-cyclopropoxyphenyl)pyridin-3-yl)cyclopropoxy)methyl)phenylsulfonamido)-N-ethylhexanamide]",126 to 1000 nM
9,"Clc1ccc(Cl)c(COC2(c3cnccc3-c3ccccc3OC3CC3)CCC2)c1 [Compound I-741, 4-(2-cyclopropoxyphenyl)-3-(1-((2,5-dichlorobenzyl)oxy)cyclobutyl)pyridine]",< 100 nM
